Results published in ChEMBL document CHEMBL3817797, “Crystal Structure of Human E-Cadherin-EC1EC2 in Complex with a Peptidomimetic Competitive Inhibitor of Cadherin Homophilic Interaction” (J Med Chem, 2016).
Calls of active or inactive are those of the source. No cut-off for these calls is given here.

Experiments:
[1] = molecular target: T1, Cadherin-2 (Homo sapiens) (UniProt P19022); assay: Inhibition of recombinant N-cadherin-Fc chimeric protein (unknown origin) homodimerization at 10 uM preincubated for 30 mins followed by N-cadherin-Fc addition by surface plasmon resonance analysis relative to control
T1 sequence (whole entry): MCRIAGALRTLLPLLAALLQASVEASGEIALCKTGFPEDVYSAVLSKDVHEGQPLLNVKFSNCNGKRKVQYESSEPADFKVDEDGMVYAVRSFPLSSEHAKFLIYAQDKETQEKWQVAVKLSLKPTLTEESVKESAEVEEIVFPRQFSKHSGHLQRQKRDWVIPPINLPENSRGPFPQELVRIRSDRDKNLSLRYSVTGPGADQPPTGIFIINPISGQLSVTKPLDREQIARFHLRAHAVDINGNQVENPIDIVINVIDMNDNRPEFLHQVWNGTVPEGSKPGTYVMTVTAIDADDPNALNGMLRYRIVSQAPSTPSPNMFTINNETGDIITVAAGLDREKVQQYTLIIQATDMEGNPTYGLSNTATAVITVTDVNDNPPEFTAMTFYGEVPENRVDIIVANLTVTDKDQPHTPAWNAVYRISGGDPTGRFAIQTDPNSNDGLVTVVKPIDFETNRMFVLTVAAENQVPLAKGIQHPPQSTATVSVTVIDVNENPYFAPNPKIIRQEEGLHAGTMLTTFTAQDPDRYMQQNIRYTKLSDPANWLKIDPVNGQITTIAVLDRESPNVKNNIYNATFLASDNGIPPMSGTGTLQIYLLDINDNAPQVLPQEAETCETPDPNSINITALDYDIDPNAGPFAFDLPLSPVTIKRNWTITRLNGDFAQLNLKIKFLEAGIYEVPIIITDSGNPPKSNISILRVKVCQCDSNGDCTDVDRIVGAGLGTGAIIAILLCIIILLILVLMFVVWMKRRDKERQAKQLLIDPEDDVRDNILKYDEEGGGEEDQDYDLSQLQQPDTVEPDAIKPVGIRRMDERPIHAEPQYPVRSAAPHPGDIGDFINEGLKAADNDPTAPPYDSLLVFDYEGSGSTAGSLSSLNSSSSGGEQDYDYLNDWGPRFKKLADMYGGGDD

[2] = molecular target: T2, Cadherin-1 (Homo sapiens) (UniProt P12830); assay: Inhibition of E-cadherin-Fc chimeric protein binding to E-cadherin in human OAW42 cells at 2 mM preincubated for 1 hr followed by E-cadherin-Fc addition measured after 2 hrs by ELISA relative to control; assay type: cell-based; conditions: OAW-42
T2 sequence (whole entry): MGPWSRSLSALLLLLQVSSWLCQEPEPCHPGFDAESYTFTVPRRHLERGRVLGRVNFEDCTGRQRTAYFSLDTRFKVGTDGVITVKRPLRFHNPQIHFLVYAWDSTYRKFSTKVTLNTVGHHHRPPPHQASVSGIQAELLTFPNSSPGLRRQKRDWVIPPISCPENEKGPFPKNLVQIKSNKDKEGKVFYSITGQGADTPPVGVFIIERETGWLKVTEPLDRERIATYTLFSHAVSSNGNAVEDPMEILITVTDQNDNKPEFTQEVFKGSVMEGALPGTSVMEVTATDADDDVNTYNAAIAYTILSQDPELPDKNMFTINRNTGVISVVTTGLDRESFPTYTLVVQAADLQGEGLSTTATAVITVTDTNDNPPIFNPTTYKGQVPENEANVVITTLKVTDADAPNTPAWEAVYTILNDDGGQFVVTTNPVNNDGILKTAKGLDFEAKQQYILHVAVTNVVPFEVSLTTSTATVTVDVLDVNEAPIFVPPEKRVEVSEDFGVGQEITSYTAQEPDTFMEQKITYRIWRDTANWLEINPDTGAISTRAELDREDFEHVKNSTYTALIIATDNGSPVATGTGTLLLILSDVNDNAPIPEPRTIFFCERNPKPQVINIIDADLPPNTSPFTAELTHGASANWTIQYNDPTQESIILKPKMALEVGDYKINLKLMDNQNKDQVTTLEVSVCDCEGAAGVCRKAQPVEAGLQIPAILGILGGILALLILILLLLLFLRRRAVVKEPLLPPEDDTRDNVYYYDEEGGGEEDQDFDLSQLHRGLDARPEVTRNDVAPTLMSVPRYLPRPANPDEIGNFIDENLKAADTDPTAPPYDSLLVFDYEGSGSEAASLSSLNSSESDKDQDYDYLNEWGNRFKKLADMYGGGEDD

[3] = molecular target: T1, Cadherin-2 (Homo sapiens); assay: Inhibition of N-cadherin-Fc chimeric protein binding to N-cadherin in human SKOV3 cells at 1 mM preincubated for 1 hr followed by N-cadherin-Fc addition measured after 2 hrs by ELISA relative to control; assay type: cell-based; conditions: SK-OV-3
[4] = molecular target: T1, Cadherin-2 (Homo sapiens); assay: Inhibition of N-cadherin-Fc chimeric protein binding to N-cadherin in human SKOV3 cells at 2 mM preincubated for 1 hr followed by N-cadherin-Fc addition measured after 2 hrs by ELISA relative to control; assay type: cell-based; conditions: SK-OV-3
[5] = molecular target: T2, Cadherin-1 (Homo sapiens); assay: Binding affinity to E-cadherin in human OAW42 cells assessed as effect on PI3K/Akt signalling activation by measuring phosphorylation of Akt at Ser-473 residue at 1 to 2 mM by immunoblot analysis; assay type: cell-based; conditions: OAW-42

| SMILES | inhibition [1] [%] | inhibition [2] [%] | inhibition [3] | inhibition [4] [%] | Activity [5] |
| --- | --- | --- | --- | --- | --- |
| CC(=O)N[C@H]1CSSC[C@@H](C(N)=O)NC(=O)[C@H](C(C)C)NC(=O)[C@H](C)NC(=O)[C@H](Cc2c[nH]cn2)NC1=O | 28 | 30 | inactive | 50 |  |
| CC[C@H](C)[C@H](NC(=O)C[C@@H]1NC(=O)[C@H](CNC(=O)[C@@H](N)CC(=O)O)N(Cc2ccccc2)C1=O)C(=O)NC(C)(C)C | 55 | 50 | 65% | 84 | Active |
